Results on six molecules are retold here after publication PMC13171625, “Breaking the ‘rule-of-five’ to access bridged bicyclic heteroaromatic bioisosteres” (Nature Synthesis, 2026).

Data set [1] in a line: LogP Assay (HPLC retention, pH 7.4). Conditions: X-Bridge C18 column (retention-time method).
A short description of data set [2]: Metabolic stability in human liver microsomes. Conditions: for Remaining (T60): 60 min; for Remaining (NCF60): 1 h incubation, human liver microsomes, no co-factor (no NADPH); for CLint scaled at 1 μM / half-life at 1 μM / microsomal CLint at 1 μM / remaining at 5 min, 1 μM / remaining at 0.5 h, 1 μM / remaining at 0.75 h, 1 μM: human. On the technique in general: Liver microsomes are vesicles of endoplasmic reticulum, rich in cytochrome P450 enzymes.

The conditions of data set [3]: reference substances used to obtain the regression equation; cited from earlier work.
The nature of the next data set: physchem. Conditions: pH 7.4.
The conditions of data set [4]: human, microsomes.
A further data set is described as follows: in vitro. The following applies: human, microsomes.
[5] abbreviates: human liver microsomes with NADPH.

Like-named read-outs stand apart in the source and are kept apart here.

The chromatographic logP is lipophilicity estimated from chromatographic retention. The low end stands for lower lipophilicity, the high end for higher lipophilicity. As usually defined, the CLint scaled is the capacity of the preparation to metabolise the compound, expressed as a volume cleared per time. A low value points to slow turnover. The term half-life denotes the time needed for the level to fall by half in the phase considered. As a reminder, the microsomal CLint is the capacity of the preparation to metabolise the compound, expressed as a volume cleared per time. Read a low microsomal CLint as slow turnover. Broadly, the amount remaining is the share of the starting amount still present when the sample was taken. The molecule `COc1ccc(S(=O)(=O)N2CCN(C(=O)OCc3ccccc3)CC2C(=O)NO)cc1` (stereo not shown) [DB04232] showed a chromatographic logP in data set [1] of 1.43. Besides, the “Remaining (T60)” value in data set [2] (setting [5]) is 30.6%. For the same molecule, the “Remaining (NCF60)” value in data set [2] is 110.2%. In data set [2] (liver microsomes), this molecule showed an intrinsic clearance (CLint scaled) at 1 μM of 2.08 L/h/kg; a half-life at 1 μM of 36 min; a microsomal CLint at 1 μM of 38.5 µL/min/mg; an amount remaining at 5 min, 1 μM of 82%. For the same molecule, in data set [2] (liver microsomes), the amount remaining at 0.5 h, 1 μM is 59.3% and the fraction remaining at 0.75 h, 1 μM came out at 38.5%.

For the molecule `CC(=O)c1ccncc1` [4-Acetylpyridine], the “Log P of reference substance” value in data set [3] is reported as 0.5.

Molecule `COc1ccc(S(=O)(=O)N2C3CN(C(=O)OCc4ccccc4)CC2(C(=O)NO)C3)cc1` (stereo not shown) [compound 68] registered a chromatographic logP in the data set “physchem” of 0.946. In data set [2] (microsomes), the microsomal CLint at 1 μM was found to be 38.1 µL/min/mg. Moreover, the “metabolic stability compared with DB04232” value in data set [4] (1 μM) is on record as “at least as metabolically stable as DB04232”. For the same molecule, in data set [4] (1 h, 1 μM), the “Remaining (NCF60)” value stood at 86.9% and the “Remaining (T60)” value came to 28.3%. In “in vitro”, this molecule had a CLint scaled at 1 μM of 2.06 L/h/kg; a half-life at 1 μM of 36.3 min; a share remaining at 5 min, 1 μM of 71.3%; a fraction remaining at 0.5 h, 1 μM of 45.9%. Moreover, the fraction remaining at 0.75 h, 1 μM in the data set “in vitro” was 36.6%.

For the molecule `O=C(O)Cc1ccccc1Nc1c(Cl)cccc1Cl` [Diclofenac], the “%Remaining” value in data set [2] (15 min, human liver microsomes with NADPH) amounted to 15.6%. Also, the “Remaining (T60)” value in data set [2] (setting [5]) is 0.1%. The “Remaining (NCF60)” value in data set [2] stood at 96.1%. Besides, in data set [2] (human liver microsomes 0.5 mg/mL, 1 μM compound, NADPH), the “CLint(mic) (microsome intrinsic clearance)” value is 232.5 µL/min/mg. In data set [2] (liver microsomes), this molecule yielded a CLint scaled at 1 μM of 12.6 L/h/kg; a half-life at 1 μM of 6 min; a share remaining at 5 min, 1 μM of 49.4%; a share remaining at 0.5 h, 1 μM of 2.6%. This molecule came in with an amount remaining at 0.75 h, 1 μM in data set [2] (liver microsomes) of 0.5%.

As to `CCc1ccccc1` [Ethylbenzene], the “Log P of reference substance” value in data set [3] is on record as 3.2.

For the molecule `C[C@]12CC[C@H]3[C@@H](CCC4=CC(=O)CC[C@@]43C)[C@@H]1CC[C@@H]2O` [Testosterone], in data set [2] (setting [5]), the “Remaining (T60)” value amounted to […]. Further, the “Remaining (NCF60)” value in data set [2] stood at […]. Besides, the fraction remaining at 5 min, 1 μM in data set [2] (microsomes) is […]. Also, the “CLint(liver) (hepatic intrinsic clearance)” value in data set [4] is […].
